Measured values published in US20220386606A1, “SPECIFICALLY SUBSTITUTED 3-PHENYL-5-SPIROCYCLOPENTYL-3-PYRROLIN-2-ONES AND THEIR USE AS HERBICIDES” (Bayer Aktiengesellschaft, priority 2019, published 2022).

Tests used:
ALOMY [1] = assay: Post-emergence herbicidal action against ALOMY; assay type: in vivo, Alopecurus myosuroides; details: 80 g/ha, visual assessment after about 3 weeks
Outline: (§1)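 Greenhouse post-emergence test; one-leaf stage (2–3 wk post-sowing), sandy loam. Spray: WP/EC in water, 600–800 l/ha, 0.2% wetting agent, onto green parts. Visual rating ~3 wk later, % vs untreated (100% = dead, 0% = like control).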

AVEFA [2] = assay: Post-emergence herbicidal action against AVEFA; assay type: in vivo, Avena fatua; details: 80 g/ha, visual assessment after about 3 weeks
Outline: as §1

DIGSA [3] = assay: Post-emergence herbicidal action against DIGSA; assay type: in vivo, Digitaria sanguinalis; details: 80 g/ha, visual assessment about 3 weeks after treatment vs untreated controls
Outline: as §1

ECHCG [4] = assay: Post-emergence herbicidal action against ECHCG; assay type: in vivo, Echinochloa crus-galli; details: 80 g/ha, visual assessment about 3 weeks after treatment vs untreated controls
Outline: as §1

LOLRI [5] = assay: Post-emergence herbicidal action against LOLRI; assay type: in vivo, Lolium rigidum; details: 80 g/ha, visual assessment about 3 weeks after treatment vs untreated controls
Outline: as §1

SETVI [6] = assay: Post-emergence herbicidal action against SETVI; assay type: in vivo, Setaria viridis; details: 80 g/ha, visual assessment about 3 weeks after treatment vs untreated controls
Outline: as §1

ABUTH [7] = assay: Post-emergence herbicidal action against ABUTH; assay type: in vivo, Abutylon threophrasti; details: 80 g/ha, visual assessment about 3 weeks after treatment vs untreated controls
Outline: as §1

HORMU = assay: Post-emergence herbicidal action against HORMU; assay type: in vivo, Hordeum murinum; details: 80 g/ha, visual assessment about 3 weeks after treatment vs untreated controls
Protocol: Seeds of monocotyledonous and dicotyledonous weed and crop plants are laid out in sandy loam soil in wood-fiber pots, covered with soil and cultivated in a greenhouse under good growth conditions. 2 to 3 weeks after sowing, the test plants are treated at the one-leaf stage. The compounds of the invention, formulated in the form of wettable powders (WP) or as emulsion concentrates (EC), are then sprayed onto the green parts of the plants as aqueous suspension or emulsion at a water application rate equating to 600 to 800 l/ha with addition of 0.2% wetting agent. After the test plants have been left to stand in the greenhouse under optimal growth conditions for about 3 weeks, the action of the preparations is assessed visually in comparison to untreated controls (herbicidal action in percent (%): 100% activity=the plants have died, 0% activity=like control plants).

ALOMY [8] = assay: Pre-emergence herbicidal action against ALOMY; assay type: in vivo, Alopecurus myosuroides; details: 320 g/ha, scored visually after 3 weeks vs untreated controls
Outline: (§2)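 Herbicidal activity is expressed as percent visual damage compared with untreated controls, where 100% means dead plants, assessed 3 weeks after pre-emergence treatment of sown, soil-covered seeds in sandy loam under greenhouse conditions.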

AVEFA [9] = assay: Pre-emergence herbicidal action against AVEFA; assay type: in vivo, Avena fatua; details: 320 g/ha, scored visually after 3 weeks vs untreated controls
Outline: as §2

DIGSA [10] = assay: Pre-emergence herbicidal action against DIGSA; assay type: in vivo, Digitaria sanguinalis; details: 320 g/ha, scored visually after 3 weeks vs untreated controls
Outline: as §2

ECHCG [11] = assay: Pre-emergence herbicidal action against ECHCG; assay type: in vivo, Echinochloa crus-galli; details: 320 g/ha, scored visually after 3 weeks vs untreated controls
Outline: as §2

LOLRI [12] = assay: Pre-emergence herbicidal action against LOLRI (Table 8, titled post-emergence at 320 g/ha); assay type: in vivo, Lolium rigidum; details: table stands in the pre-emergence section
Outline: as §2

SETVI [13] = assay: Pre-emergence herbicidal action against SETVI; assay type: in vivo, Setaria viridis; details: 320 g/ha, scored visually after 3 weeks vs untreated controls
Outline: as §2

ABUTH [14] = assay: Pre-emergence herbicidal action against ABUTH; assay type: in vivo, Abutylon threophrasti; details: 320 g/ha
Description: Seeds of monocotyledonous and dicotyledonous weed plants and crop plants are laid out in sandy loam soil in wood-fiber pots and covered with soil. The compounds of the invention, formulated in the form of wettable powders (WP) or as emulsion concentrates (EC), are then applied to the surface of the covering soil as aqueous suspension or emulsion at a water application rate equating to 600 to 800 L/ha with addition of 0.2% wetting agent.
After the treatment, the pots are placed in a greenhouse and kept under good growth conditions for the trial plants. The damage to the test plants is scored visually after a test period of 3 weeks by comparison with untreated controls (herbicidal activity in percent (%): 100% activity=the plants have died, 0% activity=like control plants).

AMARE = assay: Pre-emergence herbicidal action against AMARE; assay type: in vivo, Amaranthus retroflexus; details: 320 g/ha
Outline: as §2

MATIN = assay: Pre-emergence herbicidal action against MATIN; assay type: in vivo; details: 320 g/ha
Outline: as §2

VIOTR = assay: Pre-emergence herbicidal action against VIOTR; assay type: in vivo, Viola tricolor; details: 320 g/ha
Outline: as §2

VERPE = assay: Pre-emergence herbicidal action against VERPE; assay type: in vivo, Veronica persica; details: 320 g/ha
Outline: as §2

| Structure (SMILES) | Post-emergence action against ALOMY in % (ALOMY [1]) [%] | Post-emergence action against AVEFA in % (AVEFA [2]) [%] | Post-emergence action against DIGSA in % (DIGSA [3]) [%] | Post-emergence action against ECHCG in % (ECHCG [4]) [%] | Post-emergence action against LOLRI in % (LOLRI [5]) [%] | Post-emergence action against SETVI in % (SETVI [6]) [%] | Post-emergence action against ABUTH in % (ABUTH [7]) [%] | Post-emergence action against HORMU in % (HORMU) [%] | Pre-emergence action against ALOMY in % (ALOMY [8]) [%] | Pre-emergence action against AVEFA in % (AVEFA [9]) [%] | Pre-emergence action against DIGSA in % (DIGSA [10]) [%] | Pre-emergence action against ECHCG in % (ECHCG [11]) [%] | Pre-emergence herbicidal action against LOLRI in % (LOLRI [12]) [%] | Pre-emergence action against SETVI in % (SETVI [13]) [%] | Pre-emergence action against ABUTH in % (ABUTH [14]) [%] | Pre-emergence action against AMARE in % (AMARE) [%] | Pre-emergence action against MATIN in % (MATIN) [%] | Pre-emergence action against VIOTR in % (VIOTR) [%] | Pre-emergence action against VERPE in % (VERPE) [%] |
| --- | --- | --- | --- | --- | --- | --- | --- | --- | --- | --- | --- | --- | --- | --- | --- | --- | --- | --- | --- |
| CC#Cc1cc(C)c(C2=C(O)C3(CCC(COC)C3)NC2=O)c(Cl)c1 (stereo not shown) [Example I-12] | 100 | 100 | 100 | 100 | 100 | 100 | 90 | 100 | – | – | – | – | – | – | – | – | – | – | – |
| CC#Cc1cc(C)c(C2=C(O)C3(CCC(COCC)C3)NC2=O)c(Cl)c1 (stereo not shown) [Example I-17] | 100 | 90 | 100 | 100 | 100 | 100 | – | – | 100 | 100 | 100 | 100 | 100 | 100 | 90 | 100 | 90 | 100 | 90 |
| CC#Cc1cc(Cl)c(C2=C(O)C3(CCC(COC)C3)NC2=O)c(OC)c1 (stereo not shown) [Example I-72] | 90 | 100 | 100 | 100 | 100 | 100 | – | – | 100 | 100 | 100 | 100 | 100 | 100 | 100 | – | 100 | 100 | – |
| CC#Cc1cc(Cl)c(C2=C(O)C3(CCC(COC)C3)NC2=O)c(OC)c1 (stereo not shown) [Example I-73] | 100 | 100 | 100 | 100 | 100 | 100 | – | – | 100 | 100 | 100 | 100 | 100 | 100 | 100 | 100 | 90 | 100 | 90 |
| CC#Cc1cc(C)c(C2=C(OC(=O)C(C)C)C3(CCC(COCC)C3)NC2=O)c(Cl)c1 (stereo not shown) [Example P-03] | 100 | 100 | 100 | 100 | 100 | 100 | 80 | 100 | – | – | – | – | – | – | – | – | – | – | – |
| CC#Cc1cc(Cl)c(C2=C(OC(=O)C(C)C)C3(CCC(COC)C3)NC2=O)c(CC)c1 (stereo not shown) [Example P-14] | 100 | 100 | 100 | 100 | 100 | 100 | 90 | 100 | – | – | – | – | – | – | – | – | – | – | – |
| CC#Cc1cc(Cl)c(C2=C(OC(=O)C(C)C)C3(CCC(COCC)C3)NC2=O)c(OC)c1 (stereo not shown) [Example P-25] | 100 | 100 | 100 | 100 | 100 | 100 | 90 | 100 | – | – | – | – | – | – | – | – | – | – | – |
| CC#Cc1cc(Cl)c(C2=C(OC(=O)OCC)C3(CCC(COCC)C3)NC2=O)c(OC)c1 (stereo not shown) [Example P-26] | 100 | 100 | 100 | 100 | 100 | 100 | 80 | 100 | – | – | – | – | – | – | – | – | – | – | – |
| CC#Cc1cc(Cl)c(C2=C(OC(=O)OCC)C3(CCC(COC)C3)NC2=O)c(OC)c1 (stereo not shown) [Example P-97] | 100 | 100 | 100 | 100 | 100 | 100 | – | – | 100 | 100 | 100 | 100 | 100 | 100 | 100 | 100 | 100 | 90 | 100 |
